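Method: 48-hour compound exposure of cells in 96-well plates, five concentrations, linear interpolation of endpoints. GI50 marks 50% less growth. The concentration for full growth arrest is given as TGI.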
Legend:
Assay in all cases: growth of human tumour cells (NCI), 48 h
[1] = test system: DU-145 prostate
[2] = test system: OVCAR-3 ovarian
[3] = test system: SK-MEL-5 melanoma
[4] = test system: CAKI-1 renal
[5] = test system: SW-620 colon
[6] = test system: HOP-92 NSCLC
[7] = test system: HS 578T breast
[8] = test system: SK-OV-3 ovarian
[9] = test system: OVCAR-8 ovarian
[10] = test system: OVCAR-4 ovarian
[11] = test system: TK-10 renal
[12] = test system: KM12 colon
[13] = test system: A549 NSCLC
[14] = test system: SF-295 CNS
[15] = test system: EKVX NSCLC
[16] = test system: HCC-2998 colon
[17] = test system: SK-MEL-28 melanoma
[18] = test system: HL-60(TB) leukemia
[19] = test system: OVCAR-5 ovarian
[20] = test system: MALME-3M melanoma
[21] = test system: MDA-MB-231 breast
[22] = test system: NCI/ADR-RES ovarian
[23] = test system: U251 CNS
[24] = test system: ACHN renal
[25] = test system: HT29 colon
[26] = test system: 786-0 renal
[27] = test system: COLO 205 colon
[28] = test system: A498 renal
[29] = test system: MCF7 breast
[30] = test system: SN12C renal
[31] = test system: SNB-75 CNS
[32] = test system: RPMI-8226 leukemia
[33] = test system: UO-31 renal
[34] = test system: NCI-H23 lung
[35] = test system: SF-539 CNS
[36] = test system: T-47D breast
[37] = test system: SK-MEL-2 melanoma
[38] = test system: NCI-H226 lung
[39] = test system: MOLT-4 leukemia
[40] = test system: NCI-H522 lung
[41] = test system: LOX IMVI melanoma
[42] = test system: HOP-62 NSCLC
[43] = test system: K-562 leukemia
[44] = test system: UACC-62 melanoma
[45] = test system: MDA-MB-435
[46] = test system: M14 melanoma
[47] = test system: SNB-19 CNS
[48] = test system: HCT-15 colon
[49] = test system: SF-268 CNS
[50] = test system: IGROV1 ovarian
[51] = test system: NCI-H460 lung
[52] = test system: SR leukemia
[53] = test system: HCT-116 colon
[54] = test system: PC-3 prostate
[55] = test system: UACC-257 melanoma
[56] = test system: CCRF-CEM leukemia
[57] = test system: BT-549 breast

Structure (SMILES): Fc1ccc(-c2nc(Nc3ccc(-c4nc5ccccc5[nH]4)cc3)nc(N3CCOCC3)n2)cc1
- GI50 [1]: 0.452 µM
- TGI [1]: 1.64 µM
- GI50 [2]: 0.374 µM
- TGI [2]: 1.37 µM
- GI50 [3]: 1.69 µM
- TGI [3]: 3.13 µM
- GI50 [4]: 1.41 µM
- TGI [4]: 2.72 µM
- GI50 [5]: 0.186 µM
- TGI [5]: 0.372 µM
- GI50 [6]: 1.3 µM
- TGI [6]: 2.7 µM
- GI50 [7]: 0.7 µM
- TGI [7]: 3.02 µM
- GI50 [8]: 1.84 µM
- TGI [8]: 3.28 µM
- GI50 [9]: 1.12 µM
- TGI [9]: 2.61 µM
- GI50 [10]: 1.04 µM
- TGI [10]: 2.4 µM
- GI50 [11]: 1.96 µM
- TGI [11]: 3.42 µM
- GI50 [12]: 0.37 µM
- TGI [12]: 1.41 µM
- GI50 [13]: 0.666 µM
- TGI [13]: 2.13 µM

Structure (SMILES): Cc1c(-c2nnc(-c3cc(Cl)c(Cl)cc3Cl)o2)nnn1-c1ccnc2c(C(F)(F)F)cccc12
- GI50 [14]: 27.6 µM
- TGI [14]: 76.2 µM
- GI50 [15]: 23.7 µM
- TGI [15]: 73.9 µM
- GI50 [16]: 29.1 µM
- TGI [16]: 91.9 µM
- GI50 [17]: 26.5 µM
- TGI [17]: 75.3 µM
- GI50 [18]: 40.9 µM
- TGI [18]: > 100 µM
- GI50 [19]: 32.1 µM
- TGI [19]: 94.2 µM
- GI50 [20]: 19.2 µM
- TGI [20]: 51.1 µM
- GI50 [1]: 19.5 µM
- TGI [1]: 41.6 µM
- GI50 [2]: 27.5 µM
- TGI [2]: 82.7 µM
- GI50 [21]: 20.2 µM
- TGI [21]: 53.2 µM
- GI50 [22]: 22.7 µM
- TGI [22]: 57.1 µM
- GI50 [23]: 19.3 µM
- TGI [23]: 37.4 µM
- GI50 [24]: 21.9 µM
- TGI [24]: 51.6 µM
- GI50 [25]: 22.3 µM
- TGI [25]: 42.2 µM
- GI50 [26]: 33.8 µM
- TGI [26]: > 100 µM
- GI50 [3]: 17.3 µM
- TGI [3]: 32.5 µM
- GI50 [4]: 31.4 µM
- TGI [4]: 94.8 µM
- GI50 [27]: 17.4 µM
- TGI [27]: 33.2 µM
- GI50 [28]: 30.3 µM
- TGI [28]: 76.3 µM
- GI50 [29]: 20.3 µM
- TGI [29]: 45.1 µM
- GI50 [30]: 31.4 µM
- TGI [30]: > 100 µM
- GI50 [5]: 30.8 µM
- TGI [5]: > 100 µM
- GI50 [6]: 14.4 µM
- TGI [6]: 32.2 µM
- GI50 [31]: 18.7 µM
- TGI [31]: 43.5 µM
- GI50 [7]: 25.6 µM
- TGI [7]: 65.6 µM
- GI50 [32]: 19.9 µM
- TGI [32]: 54.1 µM
- GI50 [33]: 16.8 µM
- TGI [33]: 34.7 µM
- GI50 [34]: 26.5 µM
- TGI [34]: 81.1 µM
- GI50 [35]: 18.5 µM
- TGI [35]: 34.4 µM
- GI50 [36]: 21.7 µM
- TGI [36]: 77.4 µM
- GI50 [37]: 19.9 µM
- TGI [37]: 52 µM
- GI50 [38]: 28.7 µM
- TGI [38]: 91.7 µM
- GI50 [39]: 36.9 µM
- TGI [39]: > 100 µM
- GI50 [40]: 21.8 µM
- TGI [40]: 55.8 µM
- GI50 [41]: 19.7 µM
- TGI [41]: 38.7 µM
- GI50 [42]: 20.5 µM
- TGI [42]: 47.7 µM
- GI50 [43]: 33.1 µM
- TGI [43]: > 100 µM
- GI50 [8]: 24.5 µM
- TGI [8]: 61.1 µM
- GI50 [44]: 26.5 µM
- TGI [44]: > 100 µM
- GI50 [45]: 26.8 µM
- TGI [45]: 75.1 µM
- GI50 [46]: 26.2 µM
- TGI [46]: 70.5 µM
- GI50 [47]: 23.8 µM
- TGI [47]: 79.9 µM
- GI50 [48]: 31.5 µM
- TGI [48]: > 100 µM
- GI50 [10]: 23.9 µM
- TGI [10]: 65.8 µM
- GI50 [49]: 25 µM
- TGI [49]: 62.2 µM
- GI50 [50]: 27.1 µM
- TGI [50]: 71.7 µM
- GI50 [11]: 32.2 µM
- TGI [11]: 87 µM
- GI50 [12]: 24.6 µM
- TGI [12]: 67.4 µM
- GI50 [51]: 21.7 µM
- TGI [51]: 42.9 µM
- GI50 [52]: 20.6 µM
- TGI [52]: 47.5 µM
- GI50 [53]: 17.9 µM
- TGI [53]: 34.8 µM
- GI50 [54]: 15.9 µM
- TGI [54]: 37.4 µM
- GI50 [13]: 17.8 µM
- TGI [13]: 42.9 µM

Structure (SMILES): Cn1c(=O)cc(N2CCCC2)[nH]c1=O
- TGI [14]: > 100 µM
- TGI [15]: > 100 µM
- TGI [16]: > 100 µM
- TGI [17]: > 100 µM
- TGI [18]: > 100 µM
- TGI [19]: > 100 µM
- TGI [20]: > 100 µM
- TGI [1]: > 100 µM
- TGI [21]: > 100 µM
- TGI [22]: > 100 µM
- TGI [23]: > 100 µM
- TGI [24]: > 100 µM
- TGI [25]: > 100 µM
- TGI [26]: > 100 µM
- TGI [3]: > 100 µM
- TGI [4]: > 100 µM
- TGI [27]: > 100 µM
- TGI [29]: > 100 µM
- TGI [30]: > 100 µM
- TGI [5]: > 100 µM
- TGI [6]: > 100 µM
- TGI [31]: > 100 µM
- TGI [32]: > 100 µM
- TGI [55]: > 100 µM
- TGI [34]: > 100 µM
- TGI [35]: > 100 µM
- TGI [37]: > 100 µM
- TGI [38]: > 100 µM
- TGI [39]: > 100 µM
- TGI [40]: > 100 µM
- TGI [41]: > 100 µM
- TGI [42]: > 100 µM
- TGI [43]: > 100 µM
- TGI [45]: > 100 µM
- TGI [46]: > 100 µM
- TGI [47]: > 100 µM
- TGI [9]: > 100 µM
- TGI [48]: > 100 µM
- TGI [10]: > 100 µM
- TGI [49]: > 100 µM
- TGI [50]: > 100 µM
- TGI [11]: > 100 µM
- TGI [12]: > 100 µM
- TGI [51]: > 100 µM
- TGI [52]: > 100 µM
- TGI [53]: > 100 µM
- TGI [54]: > 100 µM
- TGI [56]: > 100 µM
- TGI [57]: > 100 µM
- TGI [13]: > 100 µM

Structure (SMILES): ClCCN(CCCl)c1ccc(CNCCCNCc2ccc(N(CCCl)CCCl)cc2)cc1
- TGI [16]: 5.2 µM
- TGI [17]: 3.18 µM
- TGI [18]: 2.67 µM
- TGI [19]: > 100 µM
- TGI [1]: > 100 µM
- TGI [21]: 5.37 µM
- TGI [22]: > 100 µM
- TGI [4]: 27.2 µM
- TGI [27]: 3.29 µM
- TGI [28]: 33.8 µM
- TGI [5]: > 100 µM
- TGI [6]: 26.6 µM
- TGI [7]: 7.81 µM
- TGI [32]: > 100 µM
- TGI [55]: 4.71 µM
- TGI [38]: 30.3 µM
- TGI [46]: > 100 µM
- TGI [11]: 5.25 µM
- TGI [52]: 1.29 µM
- TGI [53]: > 100 µM
- TGI [54]: 26.5 µM
- TGI [56]: > 100 µM
- TGI [57]: 9.85 µM
- TGI [13]: > 100 µM

— PubChem BioAssay (NCI)
